From patent US11192877B2, “3-(5-hydroxy-1-oxoisoindolin-2-yl)piperidine-2,6-dione derivatives and uses thereof” (Novartis AG, priority 2018, dated 2021) come the findings set out here.

SMILES strings stand for the structures.

IKZF2 (Helios), sequence (Q9UKS7 whole entry): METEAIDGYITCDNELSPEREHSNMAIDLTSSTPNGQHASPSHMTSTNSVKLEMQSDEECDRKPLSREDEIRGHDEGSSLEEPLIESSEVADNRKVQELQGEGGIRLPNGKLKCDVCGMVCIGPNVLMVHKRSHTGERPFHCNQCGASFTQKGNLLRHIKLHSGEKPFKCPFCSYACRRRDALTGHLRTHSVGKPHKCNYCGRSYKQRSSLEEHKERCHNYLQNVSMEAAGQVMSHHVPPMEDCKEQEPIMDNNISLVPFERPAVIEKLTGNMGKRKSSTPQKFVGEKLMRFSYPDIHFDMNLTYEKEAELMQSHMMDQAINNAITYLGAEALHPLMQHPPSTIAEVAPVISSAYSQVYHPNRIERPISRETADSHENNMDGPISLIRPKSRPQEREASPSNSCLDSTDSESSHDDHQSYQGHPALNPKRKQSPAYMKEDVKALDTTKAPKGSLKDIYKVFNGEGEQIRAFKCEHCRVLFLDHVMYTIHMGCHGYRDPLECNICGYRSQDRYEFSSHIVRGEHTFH
IKZF2 (Helios), sequence (Q96SW2 whole entry): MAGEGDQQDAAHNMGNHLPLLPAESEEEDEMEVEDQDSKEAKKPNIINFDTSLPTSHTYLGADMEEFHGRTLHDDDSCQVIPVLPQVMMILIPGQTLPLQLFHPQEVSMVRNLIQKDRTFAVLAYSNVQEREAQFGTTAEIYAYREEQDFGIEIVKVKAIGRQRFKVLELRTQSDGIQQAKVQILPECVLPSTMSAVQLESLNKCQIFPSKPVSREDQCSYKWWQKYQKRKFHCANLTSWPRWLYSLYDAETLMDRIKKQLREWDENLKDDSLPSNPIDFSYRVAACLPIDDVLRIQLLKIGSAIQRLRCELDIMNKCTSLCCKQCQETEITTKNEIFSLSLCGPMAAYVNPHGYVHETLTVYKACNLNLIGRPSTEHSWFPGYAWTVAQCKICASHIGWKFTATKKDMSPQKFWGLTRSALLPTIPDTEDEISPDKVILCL
IKZF2 (Helios), sequence (Q16531 whole entry partner): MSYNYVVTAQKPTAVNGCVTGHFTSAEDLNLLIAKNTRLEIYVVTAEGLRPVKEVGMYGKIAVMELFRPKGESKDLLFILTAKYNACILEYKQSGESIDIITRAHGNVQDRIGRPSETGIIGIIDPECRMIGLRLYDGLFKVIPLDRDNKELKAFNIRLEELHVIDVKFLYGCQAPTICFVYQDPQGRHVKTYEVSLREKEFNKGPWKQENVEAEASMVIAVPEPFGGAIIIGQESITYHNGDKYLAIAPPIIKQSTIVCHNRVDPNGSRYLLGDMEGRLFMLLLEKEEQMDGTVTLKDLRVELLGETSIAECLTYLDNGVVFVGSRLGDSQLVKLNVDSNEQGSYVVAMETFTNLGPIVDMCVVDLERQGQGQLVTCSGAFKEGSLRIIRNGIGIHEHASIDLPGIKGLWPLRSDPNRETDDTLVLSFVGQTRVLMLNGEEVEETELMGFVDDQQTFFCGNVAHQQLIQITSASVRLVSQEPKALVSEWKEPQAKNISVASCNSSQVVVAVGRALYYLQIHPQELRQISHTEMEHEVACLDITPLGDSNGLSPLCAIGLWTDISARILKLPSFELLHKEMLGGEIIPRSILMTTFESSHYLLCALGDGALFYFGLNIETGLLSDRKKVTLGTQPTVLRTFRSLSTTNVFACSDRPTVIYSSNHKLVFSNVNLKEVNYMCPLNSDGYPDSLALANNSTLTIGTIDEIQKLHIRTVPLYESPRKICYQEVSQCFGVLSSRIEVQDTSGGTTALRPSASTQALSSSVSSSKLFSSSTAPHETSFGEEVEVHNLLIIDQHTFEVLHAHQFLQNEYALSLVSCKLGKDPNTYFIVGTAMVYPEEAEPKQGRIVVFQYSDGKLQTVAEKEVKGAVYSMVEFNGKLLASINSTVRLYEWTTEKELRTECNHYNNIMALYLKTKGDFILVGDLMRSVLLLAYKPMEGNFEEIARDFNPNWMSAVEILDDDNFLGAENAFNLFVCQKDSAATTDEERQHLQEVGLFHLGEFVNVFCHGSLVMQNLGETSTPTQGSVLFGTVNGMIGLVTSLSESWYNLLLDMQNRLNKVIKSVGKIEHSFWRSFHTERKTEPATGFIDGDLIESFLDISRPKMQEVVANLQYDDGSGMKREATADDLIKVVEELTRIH

The first assay has as its target IKZF2 (Helios) (Homo sapiens, UniProt Q96SW2+Q9UKS7). The assay is described as follows: Prolabel quantification of IKZF2 protein levels in 293GT cells. Type of assay: cell-based. Conditions: 24 h, Pro-label assay, 293GT cells, 10 μM, read-out: IKZF2 % protein reduction at 10 μM, 24 h.
As for `COC1CCN([C@H]2CCC[C@@H]2Oc2ccc3c(c2)CN(C2CCC(=O)NC2=O)C3=O)CC1` (stereo partly drawn) [I-154, 3-(5-(((1S,2S)-2-(4-methoxypiperidin-1-yl)cyclopentyl)oxy)-1-oxoisoindolin-2-yl)piperidine-2,6-dione], the IKZF2 % protein reduction at 10 µM came to 83%.

For the compound `CCN(CC)[C@H]1CCCC[C@@H]1Oc1ccc2c(c1)CN(C1CCC(=O)NC1=O)C2=O` (stereo partly drawn) [I-14, 3-(5-(((1S,2S)-2-(diethylamino)cyclohexyl)oxy)-1-oxoisoindolin-2-yl)piperidine-2,6-dione], the IKZF2 % protein reduction at 10 µM was 60%.

Take `N[C@H]1CCC[C@@H]1Oc1cc2c(cc1F)C(=O)N(C1CCC(=O)NC1=O)C2` (stereo partly drawn) [I-215, 3-(5-(((1S,2S)-2-aminocyclopentyl)oxy)-6-fluoro-1-oxoisoindolin-2-yl)piperidine-2,6-dione]: the IKZF2 % protein reduction at 10 µM amounted to 30%.

In the case of `COC1CCC(CN[C@H]2CCC[C@@H]2Oc2ccc3c(c2)CN(C2CCC(=O)NC2=O)C3=O)CC1` (stereo partly drawn) [I-161, 3-(5-(((1S,2S)-2-(((4-methoxycyclohexyl)methyl)amino)cyclopentyl)oxy)-1-oxoisoindolin-2-yl)piperidine-2,6-dione], the IKZF2 % protein reduction at 10 µM stood at 80%.

For `N[C@@H]1CCCC[C@@H]1Oc1ccc2c(c1)CN(C1CCC(=O)NC1=O)C2=O` (stereo partly drawn) [I-30, 3-(5-(((1S,2R)-2-aminocyclohexyl)oxy)-1-oxoisoindolin-2-yl)piperidine-2,6-dione], the IKZF2 % protein reduction at 10 µM came to 0%.

Consider `CCN(C)[C@H]1CCC[C@@H]1Oc1ccc2c(c1)CN(C1CCC(=O)NC1=O)C2=O` (stereo partly drawn) [I-143, 3-(5-(((1S,2S)-2-(ethyl(methyl)amino)cyclopentyl)oxy)-1-oxoisoindolin-2-yl)piperidine-2,6-dione], for which the IKZF2 % protein reduction at 10 µM was 81%.

On to `C[C@@H](N[C@H]1CCCC[C@@H]1Oc1ccc2c(c1)CN(C1CCC(=O)NC1=O)C2=O)c1ccccc1` (stereo partly drawn) [I-23, 3-(1-oxo-5-(((1S,2S)-2-(((R)-1-phenylethyl)amino)cyclohexyl)oxy)isoindolin-2-yl)piperidine-2,6-dione], for which the IKZF2 % protein reduction at 10 µM is 80%.

On to `O=C1CCC(N2Cc3cc(O[C@H]4CCC[C@@H]4N4CC(OCc5ccccc5)C4)ccc3C2=O)C(=O)N1` (stereo partly drawn) [I-52, 3-(5-(((1S,2S)-2-(3-(benzyloxy)azetidin-1-yl)cyclopentyl)oxy)-1-oxoisoindolin-2-yl)piperidine-2,6-dione], for which the IKZF2 % protein reduction at 10 µM came out at 89%.

As for `CCN(C[C@H]1C[C@@H](OC)C1)[C@H]1CCC[C@@H]1Oc1ccc2c(c1)CN(C1CCC(=O)NC1=O)C2=O` (stereo partly drawn) [I-180, 3-(5-(((1S,2S)-2-(ethyl(((1s,3R)-3-methoxycyclobutyl)methyl)amino)cyclopentyl)oxy)-1-oxoisoindolin-2-yl)piperidine-2,6-dione], the IKZF2 % protein reduction at 10 µM was 81%.

Regarding `O=C1CCC(N2Cc3cc(O[C@H]4CCCC[C@@H]4N4CC5(COC5)C4)ccc3C2=O)C(=O)N1` (stereo partly drawn) [I-74, 3-(5-(((1S,2S)-2-(2-oxa-6-azaspiro[3.3]heptan-6-yl)cyclohexyl)oxy)-1-oxoisoindolin-2-yl)piperidine-2,6-dione], the IKZF2 % protein reduction at 10 µM was found to be 58%.

As to `O=C1CCC(N2Cc3cc(O[C@H]4CCC[C@@H]4N4CCC(F)(F)CC4)ccc3C2=O)C(=O)N1` (stereo partly drawn) [I-8, 3-(5-(((1S,2S)-2-(4,4-difluoropiperidin-1-yl)cyclopentyl)oxy)-1-oxoisoindolin-2-yl)piperidine-2,6-dione], the IKZF2 % protein reduction at 10 µM came to 50%.

Consider `CC1(C#N)CC(CNC2CCCCC2Oc2ccc3c(c2)CN(C2CCC(=O)NC2=O)C3=O)C1` [I-95, (1R,3s)-3-((((1S,2S)-2-((2-(2,6-dioxopiperidin-3-yl)-1-oxoisoindolin-5-yl)oxy)cyclohexyl)amino)methyl)-1-methylcyclobutane-1-carbonitrile], for which the IKZF2 % protein reduction at 10 µM was 84%.

Regarding `O=C1CCC(N2Cc3cc(O[C@H]4CCCC[C@@H]4O)ccc3C2=O)C(=O)N1` (stereo partly drawn) [I-27, 3-(5-(((1S,2S)-2-hydroxycyclohexyl)oxy)-1-oxoisoindolin-2-yl)piperidine-2,6-dione], the IKZF2 % protein reduction at 10 µM was 50%.

Regarding `CC(C)(O)CCN[C@H]1CCCC[C@@H]1Oc1ccc2c(c1)CN(C1CCC(=O)NC1=O)C2=O` (stereo partly drawn) [I-86, 3-(5-(((1S,2S)-2-((3-hydroxy-3-methylbutyl)amino)cyclohexyl)oxy)-1-oxoisoindolin-2-yl)piperidine-2,6-dione], the IKZF2 % protein reduction at 10 µM stood at 76%.

With `N#CC1(CN[C@H]2CCCC[C@@H]2Oc2ccc3c(c2)CN(C2CCC(=O)NC2=O)C3=O)CCC1` (stereo partly drawn) [I-111, 1-((((1S,2S)-2-((2-(2,6-dioxopiperidin-3-yl)-1-oxoisoindolin-5-yl)oxy)cyclohexyl)amino)methyl)cyclobutane-1-carbonitrile], the IKZF2 % protein reduction at 10 µM is 59%.

Consider `CC1(CN[C@H]2CCCC[C@@H]2Oc2ccc3c(c2)CN(C2CCC(=O)NC2=O)C3=O)CCOCC1` (stereo partly drawn) [I-102, 3-(5-(((1S,2S)-2-(((4-methyltetrahydro-2H-pyran-4-yl)methyl)amino)cyclohexyl)oxy)-1-oxoisoindolin-2-yl)piperidine-2,6-dione], for which the IKZF2 % protein reduction at 10 µM is 73%.

As to `CO[C@H]1CC[C@H](CN[C@H]2CCCC[C@@H]2Oc2ccc3c(c2)CN(C2CCC(=O)NC2=O)C3=O)CC1` (stereo partly drawn) [I-101, 3-(5-(((1S,2S)-2-((((1r,4S)-4-methoxycyclohexyl)methyl)amino)cyclohexyl)oxy)-1-oxoisoindolin-2-yl)piperidine-2,6-dione], the IKZF2 % protein reduction at 10 µM was 73%.

`COC1CN([C@H]2CCCC[C@@H]2Oc2ccc3c(c2)CN(C2CCC(=O)NC2=O)C3=O)C1` (stereo partly drawn) [I-89, 3-(5-(((1S,2S)-2-(3-methoxyazetidin-1-yl)cyclohexyl)oxy)-1-oxoisoindolin-2-yl)piperidine-2,6-dione]: the IKZF2 % protein reduction at 10 µM is 82%.

Take `O=C1CCC(N2Cc3cc(O[C@H]4CCCC[C@@H]4N4CC(Oc5ccccc5Cl)C4)ccc3C2=O)C(=O)N1` (stereo partly drawn) [I-112, 3-(5-(((1S,2S)-2-(3-(2-chlorophenoxy)azetidin-1-yl)cyclohexyl)oxy)-1-oxoisoindolin-2-yl)piperidine-2,6-dione]: the IKZF2 % protein reduction at 10 µM turned out to be 95%.

As to `CCN(CC1CC(C)(C#N)C1)C1CCCC1Oc1ccc2c(c1)CN(C1CCC(=O)NC1=O)C2=O` (single isomer, unassigned) [I-164], the IKZF2 % protein reduction at 10 µM was 71%.

In the case of `CC(C)OC1CN([C@H]2CCCC[C@@H]2Oc2ccc3c(c2)CN(C2CCC(=O)NC2=O)C3=O)C1` (stereo partly drawn) [I-53, 3-(5-(((1S,2S)-2-(3-isopropoxyazetidin-1-yl)cyclohexyl)oxy)-1-oxoisoindolin-2-yl)piperidine-2,6-dione], the IKZF2 % protein reduction at 10 µM was 88%.

For the compound `CC1(O)CN([C@H]2CCC[C@@H]2Oc2ccc3c(c2)CN(C2CCC(=O)NC2=O)C3=O)C1` (stereo partly drawn) [I-141, 3-(5-(((1S,2S)-2-(3-hydroxy-3-methylazetidin-1-yl)cyclopentyl)oxy)-1-oxoisoindolin-2-yl)piperidine-2,6-dione], the IKZF2 % protein reduction at 10 µM stood at 77%.

Turning to `O=C1CCC(N2Cc3cc(O[C@H]4CCC[C@@H]4N4CCC(O)C4)ccc3C2=O)C(=O)N1` (stereo partly drawn) [I-139, 3-(5-(((1S,2S)-2-(3-hydroxypyrrolidin-1-yl)cyclopentyl)oxy)-1-oxoisoindolin-2-yl)piperidine-2,6-dione], the IKZF2 % protein reduction at 10 µM worked out at 83%.

Turning to `CC1(C)CCCN([C@@H]2CCC[C@H]2Oc2ccc3c(c2)CN(C2CCC(=O)NC2=O)C3=O)C1` (single isomer, unassigned) [I-169], the IKZF2 % protein reduction at 10 µM was 2%.

On to `CC1(O)CCN([C@H]2CCC[C@@H]2Oc2ccc3c(c2)CN(C2CCC(=O)NC2=O)C3=O)CC1` (stereo partly drawn) [I-138, 3-(5-(((1S,2S)-2-(4-hydroxy-4-methylpiperidin-1-yl)cyclopentyl)oxy)-1-oxoisoindolin-2-yl)piperidine-2,6-dione], for which the IKZF2 % protein reduction at 10 µM was determined as 83%.

As to `O=C1CCC(N2Cc3cc(O[C@H]4CCCCC[C@@H]4NCC45CC(F)(C4)C5)ccc3C2=O)C(=O)N1` (stereo partly drawn) [I-67, 3-(5-(((1S,2S)-2-(((3-fluorobicyclo[1.1.1]pentan-1-yl)methyl)amino)cycloheptyl)oxy)-1-oxoisoindolin-2-yl)piperidine-2,6-dione], the IKZF2 % protein reduction at 10 µM was found to be 74%.

Take `O=C1CCC(N2Cc3cc(O[C@H]4CCCC[C@@H]4N4CC(Oc5cccc(F)c5)C4)ccc3C2=O)C(=O)N1` (stereo partly drawn) [I-121, 3-(5-(((1S,2S)-2-(3-(3-fluorophenoxy)azetidin-1-yl)cyclohexyl)oxy)-1-oxoisoindolin-2-yl)piperidine-2,6-dione]: the IKZF2 % protein reduction at 10 µM was 94%.

For the compound `O=C1CCC(N2Cc3cc(O[C@@H]4CCCC[C@@H]4O)ccc3C2=O)C(=O)N1` (relative stereo) [I-37, 3-(5-(((1R*, 2S*)-2-hydroxycyclohexyl)oxy)-1-oxoisoindolin-2-yl)piperidine-2,6-dione], the IKZF2 % protein reduction at 10 µM was 0%.

The assay is the same for the next values; noted with them: 24 h, read-out: IKZF2 % protein reduction at 10 μM, 24 h.
As to `O=C1CCC(N2Cc3cc(O[C@H]4CCC[C@@H]4N4CCC(OCC5CC5)CC4)ccc3C2=O)C(=O)N1` (stereo partly drawn) [I-186, 3-(5-(((1S,2S)-2-(4-(cyclopropylmethoxy)piperidin-1-yl)cyclopentyl)oxy)-1-oxoisoindolin-2-yl)piperidine-2,6-dione], the IKZF2 % protein reduction at 10 µM is 86%.

As for `N#C[C@H]1CC[C@H](CN[C@H]2CCC[C@@H]2Oc2ccc3c(c2)CN(C2CCC(=O)NC2=O)C3=O)CC1` (stereo partly drawn) [I-160, (1S,4r)-4-((((1S,2S)-2-((2-(2,6-dioxopiperidin-3-yl)-1-oxoisoindolin-5-yl)oxy)cyclopentyl)amino)methyl)cyclohexane-1-carbonitrile], the IKZF2 % protein reduction at 10 µM is 75%.

As for `O=C1CCC(N2Cc3cc(O[C@H]4CCC[C@@H]4N4CCC(OC(F)F)CC4)ccc3C2=O)C(=O)N1` (stereo partly drawn) [I-195, 3-(5-(((1S,2S)-2-(4-(difluoromethoxy)piperidin-1-yl)cyclopentyl)oxy)-1-oxoisoindolin-2-yl)piperidine-2,6-dione], the IKZF2 % protein reduction at 10 µM came out at 85%.

Staying with this assay, now noted: Pro-label assay, 293GT cells, 10 μM.
As to `COC1CC(CNC2CCCCC2Oc2ccc3c(c2)CN(C2CCC(=O)NC2=O)C3=O)C1` (single isomer, unassigned) [I-100], the “IKZF2 % protein reduction at 10 μM, 24 h” value was found to be 86%.
